Source: US20210345614A1, “APPLICATION OF 7-CARBOXYBENZO[1,2,3]THIADIAZOLE AMIDES AS PLANT STIMULANTS” (ADAM MICKIEWICZ UNIVERSITY FOUNDATION, priority 2015, published 2021)

Test system: Pyrenophora teres
Assay: Field test on barley, fungal infection by Pyrenophora teres
Type: in vivo, Hordeum vulgare (spring)
Protocol: The test was conducted on a variety of barley Hordeum vulgare (spring). As such, six applications of the active substance solution was made. The study was conducted on fields of about 25 m^2 in quadruplicate for each combination tested. […] (with the addition of commercial adjuvant) followed by treatment with common fungicide (tebukonazole in formulation containing 250 g of active substance to be applied per 1 ha) in reducing infection of fungi Pyrenophora teres in barley (Hordeum vulgare (spring)) was performed. […] Six applications of the active substance BTHWA solution were made. As a control, one application of fungicide was performed at the time as indicated on the product label. The study was conducted on fields of about 25 m^2 in quadruplicate for each combination tested. […] The fungicide was applied in an amount of 33% its recommended dose (83 g/ha). Six applications of the active substance BTHWA solution were made. As a control, one application of fungicide was performed at the time as indicated on the product label. The study was conducted on fields of about 25 m^2 in quadruplicate for each combination tested.

[1] = Example 29: tebukonazole 1x 250 g/ha alone, or BTHWA 20 mg/L (six applications) + tebukonazole 1x 125 g/ha
[2] = Example 30: tebukonazole 1x 250 g/ha alone, or BTHWA 20 mg/L (six applications) + tebukonazole 1x, table prints 125 g/ha, text 83 g/ha

Compound: CC(C)(C)C(O)(CCc1ccc(Cl)cc1)Cn1cncn1 (racemic) [tebukonazole, (RS)-1-(4-chlorophenyl)-4,4-dimethyl-3-(1H, 1,2,4-triazol-1-ylmethyl)pentan-3-ol]
- % efficacy [1]: 90.87%
- % of infection [1]: 6.00%
- % efficacy [2]: 90.87%
- % of infection [2]: 6.00%
